What was measured:
[1] = target: T1, cloned human μ opioid receptor (Homo sapiens (Human), UniProt P35372); assay: [3H]diprenorphine receptor binding, μ opioid receptor; conditions: inhibition of [3H]diprenorphine binding; Cheng-Prusoff correction of IC50
Description: (§1) IC50 values were obtained by nonlinear analysis of the data using GraphPad Prism version 3.00 for Windows (GraphPad Software, San Diego). Ki values were obtained by Cheng-Prusoff corrections of IC50 values.
(§2) The receptor binding method (DeHaven and DeHaven-Hudkins, 1998) was a modification of the method of Raynor et al. (1994). After dilution in buffer A and homogenization as before, membrane proteins (10-80 μg) in 250 μL were added to mixtures containing test compound and [^3H]diprenorphine (0.5 to 1.0 nM, 40,000 to 50,000 dpm) in 250 μL of buffer A in 96-well deep-well polystyrene titer plates (Beckman). After incubation at room temperature for one hour, the samples were filtered through GF/B filters that had been presoaked in a solution of 0.5% (w/v) polyethylenimine and 0.1% (w/v) bovine serum albumin in water. The filters were rinsed 4 times with 1 mL of cold 50 mM Tris HCl, pH 7.8 and radioactivity remaining on the filters determined by scintillation spectroscopy. Nonspecific binding was determined by the minimum values of the titration curves and was confirmed by separate assay wells containing 10 μM naloxone.
(§3) To determine the equilibrium dissociation constant for the inhibitors (Ki), radioligand bound (cpm) in the presence of various concentrations of test compounds was measured. The concentration to give half-maximal inhibition (EC50) of radioligand binding was determined from a best nonlinear regression fit to the following equation,
(§4) [formula] where Y is the amount of radioligand bound at each concentration of test compound, Bottom is the calculated amount of radioligand bound in the presence of an infinite concentration of test compound, Top is the calculated amount of radioligand bound in the absence of test compound, X is the logarithm of the concentration of test compound, and LogEC50 is the log of the concentration of test compound where the amount of radioligand bound is half-way between Top and Bottom. The nonlinear regression fit was performed using the program Prism® (GraphPad Software, San Diego, Calif.). The Ki values were then determined from the EC50 values by the following equation,
(§5) [formula] where [ligand] is the concentration of radioligand and Kd is the equilibrium dissociation constant for the radioligand.

[2] = target: cloned human δ opioid receptor (Homo sapiens (Human), UniProt P41143); assay: [3H]diprenorphine receptor binding, δ opioid receptor; conditions: inhibition of [3H]diprenorphine binding; Cheng-Prusoff correction of IC50
Description: as §1, §2, §3, §4, §5

[3] = target: T1, cloned human μ opioid receptor; assay: inhibition of agonist-stimulated [35S]GTPγS binding (in vitro antagonist activity), μ opioid receptor; type: biochemical; conditions: inhibition of loperamide (EC80)-stimulated [35S]GTPγS binding to membranes
Description: The potencies of the antagonists were assessed by their abilities to inhibit agonist-stimulated [^35S]GTPγS binding to membranes containing the cloned human μ, κ, or δ opioid receptors. The agonists used were loperamide for the μ opioid receptor.
To determine the IC50 value, which was the concentration to give half-maximal inhibition of agonist-stimulated [^35S]GTPγS binding, the amount of [^35S]GTPγS bound in the presence of a fixed concentration of agonist and various concentrations of antagonist was measured. The fixed concentration of agonist was the EC80 for the agonist, which was the concentration to give 80% of the relative maximum stimulation of [^35S]GTPγS binding. The IC50 value was determined from a best nonlinear regression fit of the data to the following equation,
[formula] where Y is the amount of [^35S]GTPγS bound at each concentration of antagonist, Bottom is the calculated amount of [^35S]GTPγS bound in the presence of an infinite concentration of antagonist, Top is the calculated amount of [^35S]GTPγS bound in the absence of added antagonist, X is the logarithm of the concentration of antagonist, and LogIC50 is the logarithm of the concentration of antagonist where the amount of [^35S]GTPγS bound is halfway between Bottom and Top. The nonlinear regression fit was performed using GraphPad Prism® version 3.00 for Windows (GraphPad Software, San Diego, Calif.).

[4] = target: cloned human κ opioid receptor (Homo sapiens (Human), UniProt P41145); assay: [3H]diprenorphine receptor binding, κ opioid receptor; conditions: inhibition of [3H]diprenorphine binding; Cheng-Prusoff correction of IC50
Description: as §1, §2, §3, §4, §5

T1 sequence (P35372 whole entry): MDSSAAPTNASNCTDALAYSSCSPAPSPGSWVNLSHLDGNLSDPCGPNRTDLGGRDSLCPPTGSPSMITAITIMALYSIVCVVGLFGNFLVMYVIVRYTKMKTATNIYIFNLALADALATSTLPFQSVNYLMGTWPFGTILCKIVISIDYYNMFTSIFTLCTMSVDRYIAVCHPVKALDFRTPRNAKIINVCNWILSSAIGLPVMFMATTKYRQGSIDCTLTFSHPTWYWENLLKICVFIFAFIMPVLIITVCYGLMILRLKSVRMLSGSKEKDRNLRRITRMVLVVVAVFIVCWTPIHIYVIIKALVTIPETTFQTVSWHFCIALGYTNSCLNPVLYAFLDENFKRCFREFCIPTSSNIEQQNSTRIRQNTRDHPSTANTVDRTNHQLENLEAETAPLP
cloned human κ opioid receptor, sequence (P41145 whole entry): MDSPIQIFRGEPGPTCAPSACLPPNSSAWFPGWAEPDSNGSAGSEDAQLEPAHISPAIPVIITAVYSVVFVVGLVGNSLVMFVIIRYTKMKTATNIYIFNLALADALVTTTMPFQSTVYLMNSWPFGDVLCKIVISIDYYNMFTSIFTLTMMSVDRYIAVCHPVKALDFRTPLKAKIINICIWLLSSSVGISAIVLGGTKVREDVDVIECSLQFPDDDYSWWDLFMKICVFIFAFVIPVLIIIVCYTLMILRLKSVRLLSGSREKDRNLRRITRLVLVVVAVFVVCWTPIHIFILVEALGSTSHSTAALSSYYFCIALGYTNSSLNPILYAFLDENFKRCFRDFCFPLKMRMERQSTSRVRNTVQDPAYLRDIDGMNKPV
cloned human δ opioid receptor, sequence (P41143 whole entry): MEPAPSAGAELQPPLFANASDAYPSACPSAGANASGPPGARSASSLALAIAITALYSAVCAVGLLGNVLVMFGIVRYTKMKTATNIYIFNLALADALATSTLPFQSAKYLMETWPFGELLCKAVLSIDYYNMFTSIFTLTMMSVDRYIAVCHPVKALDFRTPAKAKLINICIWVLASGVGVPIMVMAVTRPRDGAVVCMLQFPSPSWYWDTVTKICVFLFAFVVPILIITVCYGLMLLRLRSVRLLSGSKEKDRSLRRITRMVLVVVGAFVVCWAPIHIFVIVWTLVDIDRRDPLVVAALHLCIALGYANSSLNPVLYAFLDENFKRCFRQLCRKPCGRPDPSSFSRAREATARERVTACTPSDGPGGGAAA

SMILES | Ki [1] [nM] | Ki [2] [nM] | IC50 [3] [nM] | Ki [4] [nM]
C[C@H]1CN2C[C@H](c3ccccc3)CC[C@H]2C[C@@]1(C)c1cccc(O)c1 [Example 1, 3-((2R,3R,7S,9αS)-2,3-dimethyl-7-phenyl-octahydro-1H-quinolizin-2-yl)phenol] | 0.57 | 30 | 0.53 | 8.9
C[C@H]1CN2CCN(CCc3ccccc3)C[C@H]2C[C@@]1(C)c1cccc(O)c1 [Example 2B, 3-((7R,8R,9αR)-7,8-dimethyl-2-phenethyl-octahydro-1H-pyrido[1,2-α]pyrazin-8-yl)phenol] | – | 242 | 21 | 112
C[C@H]1CN2CCN(C(=O)c3ccccc3)C[C@H]2C[C@@]1(C)c1cccc(O)c1 [Example 2C, ((7R,8R,9αR)-8-(3-hydroxyphenyl)-7,8-dimethyl-hexahydro-1H-pyrido[1,2-α]pyrazin-2(6H)-yl)(phenyl)methanone] | 2 | 25 | 21 | 190
C[C@H]1CN2CCN(Cc3ccccc3)C[C@H]2C[C@@]1(C)c1cccc(O)c1 [Example 2D, 3-((7R,8R,9αR)-2-benzyl-7,8-dimethyl-octahydro-1H-pyrido[1,2-α]pyrazin-8-yl)phenol] | 1.1 | 139 | 11 | 44
C[C@H]1CN2C[C@H](c3ccccc3)NC[C@H]2C[C@@]1(C)c1cccc(O)c1 [Example 3A, 3-((3S,7R,8R,9αR)-7,8-dimethyl-3-phenyl-octahydro-1H-pyrido[1,2-α]pyrazin-8-yl)phenol] | 3.6 | 88 | 12 | 18
C[C@H]1CN2C[C@H](c3ccccc3)N(C)C[C@H]2C[C@@]1(C)c1cccc(O)c1 [Example 3B, 3-((3S,7R,8R,9αR)-2,7,8-trimethyl-3-phenyl-octahydro-1H-pyrido[1,2-α]pyrazin-8-yl)phenol] | 3.3 | 716 | 26 | 12
C[C@H]1CN2C[C@H](Cc3ccccc3)NC[C@H]2C[C@@]1(C)c1cccc(O)c1 [Example 4, 3-((3S,7R,8R,9αR)-3-benzyl-7,8-dimethyl-octahydro-1H-pyrido[1,2-α]pyrazin-8-yl)phenol] | 8.9 | 36 | 29 | 85

From US8580788B2, “Opioid antagonists” (Adolor Corporation, priority 2005, dated 2013)
